In patent publication US11072617B2, “Bicyclic sulfones and sulfoxides and methods of use thereof” (Genentech, Inc., priority 2017, dated 2021):

What follows are compounds tested against human RIP1 kinase domain (2-375) (Homo sapiens (Human), UniProt Q13546) (assay: RIP1 kinase inhibition biochemical assay (Transcreener ADP, fluorescence polarization)). Details: Ki app from tight-binding Morrison equation; 50 nM enzyme, 50 uM ATP, 2 hours incubation.
Protocol: RIP1 Kinase Inhibition Assays (Biochemical Assay)
The compounds of the present invention were tested for their capacity to inhibit RIP1K activity as described below.
The ability of the receptor interacting protein kinase (RIPK1) to catalyze the hydrolysis of adenosine-5′-triphosphate (ATP) is monitored using the Transcreener ADP (adenosine-5′-diphosphate) assay (BellBrook Labs). Purified human RIP1 kinase domain (2-375) (50 nM) derived from a baculovirus-infected insect cell expression system is incubated with test compounds for 2 hours in 50 mM Hepes buffer (pH 7.5) containing 30 mM MgCl2, 1 mM dithiothreitol, 50 uM ATP, 0.002% Brij-35, and 0.5% dimethyl sulfoxide (DMSO). Reactions are quenched by the addition of 1× Bell Brooks Stop buffer B (20 mM Hepes (ph7.5), 40 mM ethylenediaminetetraacetic acid and 0.02% Brij-35) containing an additional 12 mM EDTA and 55 ug/mL ADP2 antibody and 4 nM ADP-AlexaFluor® 633 tracer. The tracer bound to the antibody is displaced by the ADP generated during the RIP1K reaction, which causes a decrease in fluorescence polarization that is measured by laser excitation at 633 nm with a FP microplate reader M1000. Fractional activity was plotted against test article concentration. Using Genedata Screener software (Genedata; Basel, Switzerland), the data were fit to the tight-binding apparent inhibition constant (Ki^app) Morrison equation [Williams, J. W. and Morrison, J. F. (1979) The kinetics of reversible tight-binding inhibition. Methods Enzymol 63: 437-67]. The following equation was used to calculate fractional activity and Ki^app:
[formula] where [E]T and [I]T are the total concentrations of active enzyme and test article, respectively.
Exemplary compounds of the present invention are provided in Table 1 along with their physiochemical characterization and in vitro RIP1 kinase inhibitory activity data. “Method” in the first column of each table refers to the synthetic method(s) used to prepare each compound as shown in the Examples above. In certain examples, chiral column retention times (min) are provided for certain stereoisomers. Unless otherwise specified, the stereochemistry shown in each structure represents relative configuration of a single stereoisomer, and absolute configuration (i.e., “R” and/or “S”) is arbitrarily assigned. In some embodiments, where the Method is described to include the separation of stereoisomers, a single stereoisomer of a compound of Table 1 is provided.

Sequence of human RIP1 kinase domain (2-375) (Q13546 2-375): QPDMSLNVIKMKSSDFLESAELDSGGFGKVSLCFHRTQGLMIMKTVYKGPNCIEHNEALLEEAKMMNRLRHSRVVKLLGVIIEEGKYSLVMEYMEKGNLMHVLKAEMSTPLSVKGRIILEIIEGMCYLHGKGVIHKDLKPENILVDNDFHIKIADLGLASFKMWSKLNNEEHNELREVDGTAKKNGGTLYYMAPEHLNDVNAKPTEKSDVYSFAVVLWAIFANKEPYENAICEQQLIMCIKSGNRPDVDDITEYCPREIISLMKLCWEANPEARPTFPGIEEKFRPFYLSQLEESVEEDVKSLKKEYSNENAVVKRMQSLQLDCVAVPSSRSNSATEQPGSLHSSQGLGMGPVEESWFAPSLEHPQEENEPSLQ

Going from [O-][S+](Cc1ccccn1)c1nc2n(n1)[C@H](c1ccccc1)C[C@@H]2F (stereo partly drawn) [Example 147, (5S,7S)-7-fluoro-5-phenyl-2-((pyridin-2-ylmethyl)sulfinyl)-6,7-dihydro-5H-pyrrolo[1,2-b][1,2,4]triazole] to CC[S+]([O-])c1nc2n(n1)[C@H](c1ccccc1)C[C@@H]2F (stereo partly drawn) [Example 107, (5S,7S)-2-ethylsulfinyl-7-fluoro-5-phenyl-6,7-dihydro-5H-pyrrolo[1,2-b][1,2,4]triazole], the Ki falls from 0.14 µM to 0.034 µM (4.1-fold). The second binds more tightly here.

First: [O-][S+](c1nc2n(n1)C(c1cc(F)cc(F)c1)CC2)C(F)F (stereo not shown) [Example 176, 2-(Difluoromethylsulfinyl)-5-(3,5-difluorophenyl)-6,7-dihydro-5H-pyrrolo[1,2-b][1,2,4]triazole]
Second: [O-][S@@+](c1nc2n(n1)[C@H](c1ccccc1Cl)CC2)C(F)F [Example 17, (5S)-5-(2-chlorophenyl)-2-[(S)-difluoromethylsulfinyl]-6,7-dihydro-5H-pyrrolo[1,2-b][1,2,4]triazole]
The Ki of the first is 2.2-fold higher: 0.11 µM for the first, 0.05 µM for the second.

Compared with O=S(=O)(c1nc2n(n1)[C@H](c1cccc(Cl)c1F)C[C@@H]2F)[C@@H]1C[C@H]1F [Example 208, (5S,7S)-5-(3-chloro-2-fluoro-phenyl)-7-fluoro-2-[(1R,2R)-2-fluorocyclopropyl]sulfonyl-6,7-dihydro-5H-pyrrolo[1,2-b][1,2,4]triazole], O=S(=O)(c1nc2n(n1)[C@H](c1cccc(F)c1F)C[C@@H]2F)C1CC1F (stereo in doubt) [Example 216, (5S,7S)-5-(2,3-difluorophenyl)-7-fluoro-2-[(1S,2S)-2-fluorocyclopropyl]sulfonyl-6,7-dihydro-5H-pyrrolo[1,2-b][1,2,4]triazole] is lower in Ki: 0.007 µM for the first, under 0.005 µM for the second. The second binds more tightly here.

Going from O=S(=O)(c1nc2n(n1)[C@H](c1cccc(F)c1)C[C@@H]2F)C1CC1 (single isomer, unassigned) [Example 48] to O=S(=O)(c1nc2n(n1)[C@H](c1cccc(F)c1)C[C@@H]2F)[C@H]1C[C@@H](O)C1 (single isomer, unassigned) [Example 195], the Ki rises from under 0.005 µM to 0.46 µM.

Going from O=S(=O)(c1nc2n(n1)[C@H](c1c(F)ccc(F)c1F)C[C@@H]2F)C1CC1 (single isomer, unassigned) [Example 38] to O=S(=O)(c1nc2n(n1)[C@H](c1c(F)cccc1F)C[C@@H]2F)C1CC1 (single isomer, unassigned) [Example 35], the Ki falls from 0.01 µM to 0.005 µM (2-fold). The second binds more tightly here.

[O-][S@@+](CF)c1nc2n(n1)[C@H](c1ccccc1Cl)C[C@@H]2F (single isomer, unassigned) [Example 86] and [O-][S@@+](CF)c1nc2n(n1)[C@H](c1ccccc1F)C[C@@H]2F (single isomer, unassigned) [Example 74] cannot be ordered by Ki: under 0.005 µM for the first, under 0.005 µM for the second.

Going from N#CCS(=O)(=O)c1nc2n(n1)[C@H](c1ccccc1)C[C@@H]2F (single isomer, unassigned) [Example 88] to O=S(=O)(CC(F)(F)F)c1nc2n(n1)[C@H](c1ccccc1)C[C@@H]2F (single isomer, unassigned) [Example 114], the Ki rises from 0.032 µM to 0.071 µM (2.2-fold).

First: O=S(=O)(c1nc2n(n1)[C@H](c1cc(F)ccc1F)C[C@@H]2F)C(F)F (single isomer, unassigned) [Example 67]
Second: O=S(=O)(c1nc2n(n1)[C@H](c1ccc(F)c(F)c1)C[C@@H]2F)C(F)F (single isomer, unassigned) [Example 63]
The Ki of the first is 6.8-fold lower: 0.005 µM for the first, 0.034 µM for the second.

Compared with CS(=O)(=O)c1nc2n(n1)[C@H](c1ccccc1F)CC2 (single isomer, unassigned) [Example 7], O=S(=O)(c1nc2n(n1)C(c1ccccc1)CC2)C(F)F (racemic) [Example 6] is 2.5-fold lower in Ki: 0.25 µM for the first, 0.101 µM for the second.

Compared with O=S(=O)(c1nc2n(n1)[C@H](c1c(F)cccc1F)C[C@@H]2F)C1CC1(F)F (stereo partly drawn) [Example 123, (5S,7S)-2-(2,2-difluorocyclopropyl)sulfonyl-5-(2,6-difluorophenyl)-7-fluoro-6,7-dihydro-5H-pyrrolo[1,2-b][1,2,4]triazole], O=S(=O)(c1nc2n(n1)[C@H](c1cc(F)ccc1F)C[C@@H]2F)C1CC1(F)F (single isomer, unassigned) [Example 122] is higher in Ki: under 0.005 µM for the first, 0.012 µM for the second.

Compared with N#CC[S@@+]([O-])c1cc2n(n1)[C@H](c1ccccc1)C[C@@H]2F (single isomer, unassigned) [Example 91], [O-][S@@+](CF)c1nc2n(n1)[C@H](c1ccccc1)C[C@@H]2F (single isomer, unassigned) [Example 73] is 50-fold lower in Ki: 0.15 µM for the first, 0.003 µM for the second.

[O-][S@@+](CF)c1nc2n(n1)[C@H](c1cc(F)ccc1F)C[C@@H]2F (single isomer, unassigned) [Example 78] and [O-][S@@+](CF)c1nc2n(n1)[C@H](c1cc(F)cc(F)c1)C[C@@H]2F (single isomer, unassigned) [Example 84] cannot be ordered by Ki: under 0.005 µM for the first, under 0.005 µM for the second.

First: O=S(=O)(c1nc2n(n1)[C@H](c1cccc(F)c1F)C[C@@H]2F)[C@H]1C[C@@H]1F (single isomer, unassigned) [Example 217]
Second: O=S(=O)(c1nc2n(n1)[C@H](c1cc(F)ccc1F)C[C@@H]2F)C1CC1F (stereo in doubt) [Example 202, (5S,7S)-5-(2,5-difluorophenyl)-7-fluoro-2-[(1R,2R)-2-fluorocyclopropyl]sulfonyl-6,7-dihydro-5H-pyrrolo[1,2-b][1,2,4]triazole]
The Ki of the first is higher: 0.006 µM for the first, under 0.005 µM for the second. The second binds more tightly here.

Going from N#CC[S@@+]([O-])c1nc2n(n1)[C@H](c1cccc(F)c1)C[C@@H]2F (single isomer, unassigned) [Example 98] to [O-][S+](c1nc2n(n1)[C@H](c1cccc(F)c1)C[C@@H]2F)C(F)F (stereo partly drawn) [Example 54, (5S,7S)-2-((difluoromethyl)sulfinyl)-7-fluoro-5-(3-fluorophenyl)-6,7-dihydro-5H-pyrrolo[1,2-b][1,2,4]triazole], the Ki rises from 0.003 µM to 0.017 µM (5.7-fold).

Going from O=S(=O)(c1nc2n(n1)[C@H](c1ccccc1)C[C@@H]2F)C1CCOC1 (stereo partly drawn) [Example 166, (5S,7S)-7-fluoro-5-phenyl-2-tetrahydrofuran-3-ylsulfonyl-6,7-dihydro-5H-pyrrolo[1,2-b][1,2,4]triazole] to N#C[C@@H]1C[C@H]1S(=O)(=O)c1nc2n(n1)[C@H](c1ccccc1)C[C@@H]2F [Example 212, (1S,2R)-2-[[(5S,7S)-7-fluoro-5-phenyl-6,7-dihydro-5H-pyrrolo[1,2-b][1,2,4]triazol-2-yl]sulfonyl]cyclopropanecarbonitrile], the Ki falls from 0.043 µM to 0.011 µM (3.9-fold).

Compared with CC[S@+]([O-])c1nc2n(n1)[C@H](c1ccccc1)CC2 [Example 3, (5S)-2-[(S)-ethylsulfinyl]-5-phenyl-6,7-dihydro-5H-pyrrolo[1,2-b][1,2,4]triazole], [O-][S@+](CC(F)(F)F)c1nc2n(n1)[C@H](c1ccccc1)C[C@@H]2F (single isomer, unassigned) [Example 185] is 8.5-fold lower in Ki: 0.162 µM for the first, 0.019 µM for the second. The second binds more tightly here.

O=S(=O)(c1nc2n(n1)[C@H](c1ccc(F)c(F)c1)C[C@@H]2F)[C@@H]1C[C@H]1F (single isomer, unassigned) [Example 144] and O=S(=O)(c1nc2n(n1)[C@H](c1ccc(F)cc1)C[C@@H]2F)C1CC1F (stereo in doubt) [Example 197, (5S,7S)-7-fluoro-5-(4-fluorophenyl)-2-[(1R,2R)-2-fluorocyclopropyl]sulfonyl-6,7-dihydro-5H-pyrrolo[1,2-b][1,2,4]triazole] are within 1.5-fold of each other in Ki: 0.009 µM for the first, 0.008 µM for the second.

First: CC(C)(C)[S@@+]([O-])c1nc2n(n1)[C@H](c1ccccc1)C[C@@H]2F (single isomer, unassigned) [Example 191]
Second: CC(C)(C)[S+]([O-])c1nc2n(n1)[C@H](c1ccccc1)C[C@@H]2F (stereo partly drawn) [Example 24, (5S,7S)-2-(tert-butylsulfinyl)-7-fluoro-5-phenyl-6,7-dihydro-5H-pyrrolo[1,2-b][1,2,4]triazole]
The Ki of the first is 4-fold lower: 0.005 µM for the first, 0.02 µM for the second. The first binds more tightly here.

First: O=S(=O)(c1nc2n(n1)[C@H](c1cc(F)ccc1F)C[C@@H]2F)[C@H]1CC1(F)F (single isomer, unassigned) [Example 126]
Second: C[C@@H](F)S(=O)(=O)c1nc2n(n1)[C@H](c1ccccc1)C[C@@H]2F (single isomer, unassigned) [Example 159]
The Ki of the first is lower: under 0.005 µM for the first, 0.015 µM for the second.

Going from O=S(=O)(CCOC(F)F)c1nc2n(n1)[C@H](c1ccccc1)C[C@@H]2F (single isomer, unassigned) [Example 198] to [O-][S+](c1nc2n(n1)[C@H](c1ccccc1)C[C@@H]2F)C1CC(F)(F)C1 (stereo partly drawn) [Example 49, (5S,7S)-2-(3,3-difluorocyclobutyl)sulfinyl-7-fluoro-5-phenyl-6,7-dihydro-5H-pyrrolo[1,2-b][1,2,4]triazole], the Ki falls from 0.068 µM to 0.012 µM (5.7-fold). The second binds more tightly here.
